We go through 34 compounds from patent publication US11008323B2, “Substituted tricyclic 1,4-benzodiazepinone derivatives as allosteric modulators of group II metabotropic glutamate receptors” (Domain Therapeutics, priority 2015, dated 2021).

Data set [1] deals with T1, human mGluR3 (hmGluR3) (Homo sapiens, UniProt Q14832).
T1 construct: expressed in transfected cells; host or cells: HEK-293 cells, transient co-transfection by electroporation
The data set can be described thus: Human mGluR3 positive allosteric modulator evaluation using Ca++ functional assay. To be noted: hmGluR3 transiently over-expressed in HEK-293 cells; stimulated by EC50 glutamate concentration; intracellular Ca2+ (Fluo4AM, FLIPR Tetra). The data set is classed as cell-based. In a few lines:
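Calcium flux (Fluo4, ex 485/em 525 nm) recorded first 10 min with compound alone, then 3 min after an EC50 glutamate challenge, giving agonist and PAM EC50 from 20-concentration sigmoidal fits. Receptor was transiently co-transfected in HEK-293 with chimeric G protein and glutamate transporters.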

Each structure is given as a SMILES string. Where a name gives a salt, the structure may show the parent alone. A value given as a limit tells only on which side of the number the result lay.

T1 sequence (Q14832 23-879): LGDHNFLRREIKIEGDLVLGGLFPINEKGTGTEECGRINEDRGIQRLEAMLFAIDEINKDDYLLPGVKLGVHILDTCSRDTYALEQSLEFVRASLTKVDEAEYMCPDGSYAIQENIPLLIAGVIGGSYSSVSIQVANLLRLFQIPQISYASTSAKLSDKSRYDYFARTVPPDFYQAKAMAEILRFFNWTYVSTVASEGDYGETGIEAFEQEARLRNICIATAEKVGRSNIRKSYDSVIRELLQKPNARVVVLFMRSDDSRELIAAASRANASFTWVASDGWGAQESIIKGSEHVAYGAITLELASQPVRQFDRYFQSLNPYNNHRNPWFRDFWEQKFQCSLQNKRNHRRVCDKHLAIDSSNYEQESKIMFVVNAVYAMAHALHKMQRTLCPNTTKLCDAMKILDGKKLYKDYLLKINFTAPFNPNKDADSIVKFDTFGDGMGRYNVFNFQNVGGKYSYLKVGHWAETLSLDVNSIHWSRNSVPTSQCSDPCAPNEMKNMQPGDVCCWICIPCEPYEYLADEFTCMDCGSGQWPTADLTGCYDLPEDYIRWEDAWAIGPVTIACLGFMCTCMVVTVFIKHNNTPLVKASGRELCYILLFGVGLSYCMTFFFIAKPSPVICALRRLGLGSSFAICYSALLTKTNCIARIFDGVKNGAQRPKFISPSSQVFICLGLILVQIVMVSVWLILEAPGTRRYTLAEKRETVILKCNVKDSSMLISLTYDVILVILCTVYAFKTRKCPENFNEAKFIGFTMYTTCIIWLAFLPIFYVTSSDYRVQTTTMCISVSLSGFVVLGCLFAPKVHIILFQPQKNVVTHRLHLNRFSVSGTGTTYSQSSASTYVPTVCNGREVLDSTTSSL

`CCc1ncccc1-c1ccc2c(c1)-n1cc(-c3ccnn3C)cc1C(=O)N(C)C21CC1` (as salt: hydrochloride) [Example 163]: the melting point (in general, the temperature, or range, at which the solid turns liquid) was 187 to 192 °C.

In turn, `CN1Cc2ccc(-c3ccc(N)nc3)cc2-n2cc(-c3ccccc3)cc2C1=O` (as salt: hydrochloride) [Example 165, 9-(6-Amino-pyridin-3-yl)-5-methyl-2-phenyl-5,6-dihydro-benzo[f]pyrrolo[1,2-a][1,4]diazepin-4-one] yielded a melting point of over 250 °C.

The compound `Cc1ncccc1-c1ccc2c(c1)-n1cc(-c3ccccc3)nc1C(=O)N(C)C2` (as salt: hydrochloride) [Example 166, 5-Methyl-9-(2-methylpyridin-3-yl)-2-phenyl-5,6-dihydro-4H-benzo[f]imidazo[1,2-a][1,4]diazepin-4-one] had a melting point of 240 to 245 °C.

`CCN1Cc2ccc(-c3cccnc3C)cc2-n2cc(-c3ccccc3)nc2C1=O` (as salt: hydrochloride) [Example 167, 5-Ethyl-9-(2-methylpyridin-3-yl)-2-phenyl-5,6-dihydro-4H-benzo[f]imidazo[1,2-a][1,4]diazepin-4-one] gave a melting point of 200 to 220 °C.

The compound `Cc1ncccc1-c1ccc2c(c1)-n1cc(-c3cnco3)cc1C(=O)N(C)C21CC1` (as salt: hydrochloride) [Example 182] had a melting point of 158 to 168 °C.

In the case of `Cc1ncccc1-c1ccc2c(c1)-n1cc(-c3cnc[nH]3)cc1C(=O)N(C)C21CC1` (as salt: hydrochloride) [Example 183], the melting point was over 250 °C.

Regarding `Cc1ncccc1-c1ccc2c(c1)-n1cc(-c3ncc[nH]3)cc1C(=O)N(C)C21CC1` (as salt: hydrochloride) [Example 184], the melting point is over 250 °C.

`Cc1ncccc1-c1ccc2c(c1)-n1cc(C(=O)C3CCCC3)cc1C(=O)N(C)C21CC1` (as salt: hydrochloride) [Example 194] displayed a melting point of 177 to 190 °C.

`CC(=O)c1cc2n(c1)-c1cc(-c3cccnc3C)ccc1C1(CC1)N(C)C2=O` (as salt: hydrochloride) [Example 195] came in with a melting point of 200 to 220 °C.

The compound `Cc1ncccc1-c1ccc2c(c1)-n1cc(CC3CCCC3)cc1C(=O)N(C)C21CC1` (as salt: hydrochloride) [Example 196] gave a melting point of 165 to 176 °C.

Take `CCc1cc2n(c1)-c1cc(-c3cccnc3C)ccc1C1(CC1)N(C)C2=O` (as salt: hydrochloride) [Example 197]: the melting point is 165 to 175 °C.

Compound `CCc1ncccc1-c1ccc2c(c1)-n1cc(C)cc1C(=O)N(C)C21CC1` (as salt: hydrochloride) [Example 199] returned a melting point of 179 to 184 °C.

For the compound `Cc1ncccc1-c1ccc2c(c1)-n1cc(C(F)F)cc1C(=O)N(C)C21CC1` (as salt: hydrochloride) [Example 201], the melting point lay within 240 to 250 °C.

On to `CCc1ncccc1-c1ccc2c(c1)-n1cc(CO)cc1C(=O)N(C)C21CC1` (as salt: hydrochloride) [Example 203], for which the melting point was over 250 °C.

Consider `COCc1cc2n(c1)-c1cc(-c3ccc(C)nc3)ccc1C1(CC1)N(C)C2=O` (as salt: hydrochloride) [Example 205], for which the melting point was 113 to 123 °C.

`Cc1ncccc1-c1ccc2c(c1)-n1cncc1C(=O)N(C)C2` (as salt: hydrochloride) [Example 215, 5-Methyl-9-(2-methylpyridin-3-yl)-5,6-dihydro-4H-benzo[f]imidazo[1,5-a][1,4]diazepin-4-one] yielded a melting point of 158 to 170 °C.

On to `Cc1ncccc1-c1ccc2c(c1)-n1ccnc1C(=O)N(C)C2` (as salt: hydrochloride) [Example 216, 5-Methyl-9-(2-methylpyridin-3-yl)-5,6-dihydro-4H-benzo[f]imidazo[1,2-a][1,4]diazepin-4-one], for which the melting point is 210 to 230 °C.

In turn, `Cc1ncccc1-c1ccc2c(c1)-n1nccc1C(=O)N(C)C2` (as salt: hydrochloride) [Example 217, 5-Methyl-9-(2-methylpyridin-3-yl)-5,6-dihydro-4H-benzo[f]pyrazolo[1,5-a][1,4]diazepin-4-one] came in with a melting point of 120 to 140 °C.

`Cc1ncccc1-c1ccc2c(c1)-n1cccc1C(=O)N(C)C2C` (centres unmarked) (as salt: hydrochloride) [Example 218, 5,6-Dimethyl-9-(2-methyl-pyridin-3-yl)-5,6-dihydro-benzo[f]pyrrolo[1,2-a][1,4]diazepin-4-one] displayed a melting point of 140 to 156 °C.

With `CC1c2ccc(-c3ccc(N(C)C)nc3)cc2-n2cccc2C(=O)N1C` (centres unmarked) (as salt: hydrochloride) [Example 219, 9-(6-Dimethylamino-pyridin-3-yl)-5,6-dimethyl-5,6-dihydro-benzo[f]pyrrolo[1,2-a][1,4]diazepin-4-one], the melting point was in the range of 145 to 162 °C.

Turning to `CCC1c2ccc(-c3cccnc3C)cc2-n2cccc2C(=O)N1C` (centres unmarked) (as salt: hydrochloride) [Example 220, 6-Ethyl-5-methyl-9-(2-methyl-pyridin-3-yl)-5,6-dihydro-benzo[f]pyrrolo[1,2-a][1,4]diazepin-4-one], the melting point was 160 to 170 °C.

Regarding `Cc1ncccc1-c1ccc2c(c1)-n1cccc1C(=O)N(C)C2(C)C` (as salt: hydrochloride) [Example 223, 5,6,6-Trimethyl-9-(2-methyl-pyridin-3-yl)-5,6-dihydro-benzo[f]pyrrolo[1,2-a][1,4]diazepin-4-one], the melting point was in the range of 230 to 250 °C.

In turn, `CN1C(=O)c2cccn2-c2cc(C=CC#N)ccc2C12CC2` (mixture of isomers) [Example 52, 5-Methyl-9-actylonitrile-spiro[benzo[f]pyrrolo[1,2-a][1,4]diazepine-6,1′-cyclopropan]-4(5H)-one] registered a melting point of 130 to 138 °C. For the same compound, in data set [1], the concentration for a half-maximal effect (EC50) (commonly the midpoint of the concentration-response curve) fell in the range of 100 to 1000 nM.

Consider `Cc1ncccc1-c1ccc2c(c1)-n1cccc1C(=O)N(C)C21CC1` [Example 20, 5-Methyl-9-(2-methyl-pyridin-3-yl)-spiro[benzo[f]pyrrolo[1,2-a][1,4]diazepine-6,1′-cyclopropan]-4(5H)-one], for which the melting point is 200 to 210 °C. In addition, the EC50 in data set [1] is 100 to 1000 nM.

Compound `COCN1C(=O)c2cccn2-c2cc(-c3cccnc3C)ccc2C12CC2` [Example 21, 5-Methoxymethyl-9-(2-methyl-pyridin-3-yl)-spiro[benzo[f]pyrrolo[1,2-a][1,4]diazepine-6,1′-cyclopropan]-4(5H)-one] came in with a melting point of 138 to 142 °C. Besides, in data set [1], the EC50 was over 1000 nM.

In turn, `Cc1n[nH]c(C)c1-c1ccc2c(c1)-n1cccc1C(=O)N(C)C21CC1` [Example 27, 5-Methyl-9-(3,5-dimethyl-1H-pyrazol-4-yl)-spiro[benzo[f]pyrrolo[1,2-a][1,4]diazepine-6,1′-cyclopropan]-4(5H)-one] returned a melting point of 115 to 125 °C. For the same compound, in data set [1], the EC50 is over 1000 nM.

Regarding `CN1C(=O)c2cccn2-c2cc(-c3c[nH]nc3C(F)(F)F)ccc2C12CC2` [Example 28, 5-Methyl-9-(3-trifluoromethyl-1H-pyrazol-4-yl)-spiro[benzo[f]pyrrolo[1,2-a][1,4]diazepine-6,1′-cyclopropan]-4(5H)-one], the melting point was over 250 °C. In addition, in data set [1], the EC50 is over 1000 nM.

Compound `CN1C(=O)c2cccn2-c2cc(-c3cnn(C)c3)ccc2C12CC2` [Example 29, 5-Methyl-9-(1-methyl-pyrazol-4-yl)-spiro[benzo[f]pyrrolo[1,2-a][1,4]diazepine-6,1′-cyclopropan]-4(5H)-one] returned a melting point of 75 to 83 °C. This compound also displayed an EC50 in data set [1] of 100 to 1000 nM.

Consider `CN1C(=O)c2cccn2-c2cc(-c3ccnn3C)ccc2C12CC2` [Example 30, 5-Methyl-9-(1-methyl-pyrazol-5-yl)-spiro[benzo[f]pyrrolo[1,2-a][1,4]diazepine-6,1′-cyclopropan]-4(5H)-one], for which the melting point lay in the range of 214 to 220 °C. This compound also registered an EC50 in data set [1] of 100 to 1000 nM.

As to `CN1C(=O)c2cccn2-c2cc(-c3ccc(F)nc3)ccc2C12CC2` [Example 31, 5-Methyl-9-(6-fluoropyridin-3-yl)-spiro[benzo[f]pyrrolo[1,2-a][1,4]diazepine-6,1′-cyclopropan]-4(5H)-one], the melting point lay within 171 to 176 °C. The compound also had an EC50 in data set [1] of under 100 nM.

For the compound `Cc1nc(F)ccc1-c1ccc2c(c1)-n1cccc1C(=O)N(C)C21CC1` [Example 32, 5-Methyl-9-(6-fluoro-2-methylpyridin-3-yl)-spiro[benzo[f]pyrrolo[1,2-a][1,4]diazepine-6,1′-cyclopropan]-4(5H)-one], the melting point fell in the range of 198 to 202 °C. In data set [1], this compound registered an EC50 of under 100 nM.

In the case of `CN1C(=O)c2cccn2-c2cc(-c3cccnc3F)ccc2C12CC2` [Example 33, 5-Methyl-9-(2-fluoropyridin-3-yl)-spiro[benzo[f]pyrrolo[1,2-a][1,4]diazepine-6,1′-cyclopropan]-4(5H)-one], the melting point was in the range of 158 to 162 °C. The compound further had an EC50 in data set [1] of 100 to 1000 nM.

The compound `CN1C(=O)c2cc(C(=O)O)cn2-c2cc(-c3ccc(F)nc3)ccc2C12CC2` [Example 177, 5-Methyl-9-(6-fluoro-pyridin-3-yl)-4-oxo-4,5-dihydrospiro[benzo[f]pyrrolo[1,2-a][1,4]diazepine-6,1′-cyclopropane]-2-carboxylic acid] had a melting point of over 250 °C.

`[2H]C([2H])([2H])N1C(=O)c2cc(C(=O)O)cn2-c2cc(-c3ccc(F)nc3)ccc2C12CC2` [Example 178, 5-(Methyl-d3)-9-(6-fluoro-pyridin-3-yl)-4-oxo-4,5-dihydrospiro[benzo[f]pyrrolo[1,2-a][1,4]diazepine-6,1′-cyclopropane]-2-carboxylic acid] showed a melting point of over 250 °C.
